Reference: US20230266302A1, “SYNTHESIS AND USE OF N-BENZYL SULFONAMIDES” (THE UNIVERSITY OF TULSA, priority 2020, published 2023)

Key:
Experiment in all cases: ATP level assay (CellTiter-Glo), percent of control
Type in all cases: cell-based
[1] = test system: HeLa (cervical cancer); conditions: two hour incubation; for activity at 100 µM: Homo sapiens, HeLa, 2 h, compound alone, control DMSO, read-out: POC (percent of control) HeLa
Description: (§1) In the present method, the method of using the available assays has been modified to measure the short-term effect of compounds of interest on ATP levels in the cells. […] In the modified method, the control and test cells are initially treated with the metabolic inhibitor for a period of about thirty minutes to about four hours. Typically, the treatment of the cells with the metabolic inhibitor is for one hour prior to adding the compound to be screened for anti-cancer properties. However, simultaneous treatment with the metabolic inhibitor and the compound being screened should provide satisfactory results. […] ATP synthesis in cells occurs over multiple biochemical pathways. These pathways are very responsive to metabolic inhibitors and/or changes in available nutrients. By incorporating a metabolic inhibitor which is known to impact certain pathways, the disclosed method provides for measurement of a compound's direct effects on the remaining metabolic pathways available for ATP synthesis in the cell.
(§2) Following treatment of the control and test cells with the metabolic inhibitor, the method calls for addition of the compound to be screened for anti-cancer properties to the cells. Following addition of the compound of interest, the assay is allowed to continue for about one hour to about four hours or depending on the luminescing agent up to eighteen hours. However, approximately 60 minutes will be sufficient to determine the ATP inhibiting effect of the compound to be screened on the cells. Following completion of the selected time period, the ATP level within the cell is determined. ATP levels can be determined by luminescence according to standard measuring procedures, i.e. the luminescence level of the assay from the living cells treated with the two component composition is compared to the luminescence level of the assay from the living cells without the two component composition, i.e., the control experiment. Thus, the ATP levels are determined without killing the cells during the incubation of the cells in the presence of the compound of interest. As a result, the measured reduction in ATP level corresponds directly to the inhibition of the metabolic pathways uninhibited by the metabolic blocker.
(§3) A wide variety of ATP luminescing detection reagents are available commercially. So long as the reagent produces a luminescence in the presence of ATP, the reagent will be suitable for use in the present method. Suitable reagents include but are not limited to any ATP dependent luciferase such as but not limited to firefly luciferase, other modified luciferase based reagents, i.e. luciferase derivatives. According to the rapid method for determining the anti-cancer activity of a compound, a sample of living cells is distributed across a number of testing wells. Typically, 96-well plates are used; however, the number of wells is not critical to the current method. When using a 96-well plate the number of living cells will commonly be about 20,000. The sample wells contain a cell growth medium to promote cell health and growth and an additive to prevent bacterial contamination of the wells. One common example of the cell growth medium is DMEM with 10% FBS as described above. One example of the additive to prevent bacterial contamination is a solution of penicillin G and streptomycin referred to commonly as Pen-Strep. The Pen-Strep solution typically contains 5000 units of penicillin G and 5000 micrograms of streptomycin. Thus, the rapid determination of anti-cancer compounds can be carried out using the following method. • The desired number of cells are distributed in a 96-well plate containing 100 μL DMEM plus 10% FBS with optional Pen-Strep. • After 24 hours, cells are treated with the compound of interest or a 5% solution of dimethyl sulfoxide (DMSO) in water as a control. • The time period for exposure to the compound of interest and the DMSO control will vary depending on the luminescing detection reagent. […]

[2] = test system: MCF10A (non-cancerous breast); conditions: two hour incubation; for activity at 100 µM: Homo sapiens, MCF-10A, 2 h, compound alone, control DMSO, read-out: POC (percent of control) MCF10A
Description: as §1, §2, §3

[3] = test system: MDA-MB (breast cancer); conditions: two hour incubation; for activity at 100 µM: 2 h, compound alone, control DMSO, read-out: POC (percent of control) MDA-MB
Description: as §1, §2, §3

[4] = test system: SkBr3 (breast cancer); conditions: two hour incubation; for activity at 100 µM: Homo sapiens, SK-BR-3, 2 h, compound alone, control DMSO, read-out: POC (percent of control) SkBr3
Description: as §1, §2, §3

[5] = test system: PC3 (prostate cancer); conditions: two hour incubation; for activity at 100 µM: 2 h, compound alone, control DMSO, read-out: POC (percent of control) PC3
Description: as §1, §2, §3

[6] = test system: HDF (normal cells); conditions: two hour incubation; for activity at 100 µM: 2 h, compound alone, control DMSO, read-out: POC (percent of control) HDF
Description: as §1, §2, §3

[7] = test system: BxPC3 (pancreatic cancer); conditions: two hour incubation; for activity at 100 µM: Homo sapiens, BXPC-3, 2 h, compound alone, control DMSO, read-out: POC (percent of control) BxPC3
Description: as §1, §2, §3

[8] = test system: T47D (breast cancer); conditions: two hour incubation; for activity at 100 µM: Homo sapiens, T47D, 2 h, compound alone, control DMSO, read-out: POC (percent of control) T47D
Description: as §1, §2, §3

[9] = test system: NCI-H196 (lung cancer); conditions: two hour incubation; for activity at 100 µM: NCI-H196, 2 h, compound alone, control DMSO, read-out: POC (percent of control) NCI-H196
Description: as §1, §2, §3

[10] = test system: H293 (kidney cancer); conditions: two hour incubation; for activity at 100 µM: 2 h, compound alone, control DMSO, read-out: POC (percent of control) H293
Description: as §1, §2, §3

[11] = test system: MCF7 (breast cancer); conditions: two hour incubation; for activity at 100 µM: Homo sapiens, MCF7, 2 h, compound alone, control DMSO, read-out: POC (percent of control) MCF7
Description: as §1, §2, §3

[12] = compound 100 uM + 2DG (about 10-20 mM)
[13] = compound 100 uM + rotenone (approximately 1.25 μM)

SMILES: Cc1cccc2c(CNS(=O)(=O)c3ccc(Cl)cc3)c[nH]c12 [Compound 28, 4-chloro-N-[(7-methyl-1H-indol-3-yl)methyl]benzenesulfonamide]
- activity at 100 µM [1]: 57.7%
- POC (percent of control) HeLa [1, 12]: 65.6% of control
- POC (percent of control) HeLa [1, 13]: 96.1% of control
- activity at 100 µM [2]: 72.8%
- POC (percent of control) MCF10A [2, 12]: 29.5% of control
- POC (percent of control) MCF10A [2, 13]: 81.1% of control
- activity at 100 µM [3]: 77.4%
- POC (percent of control) MDA-MB [3, 12]: 45.5% of control
- POC (percent of control) MDA-MB [3, 13]: 78.1% of control
- activity at 100 µM [4]: 102%
- POC (percent of control) SkBr3 [4, 12]: 79.6% of control
- POC (percent of control) SkBr3 [4, 13]: 87.3% of control
- activity at 100 µM [5]: 31.8%
- POC (percent of control) PC3 [5, 12]: 56.5% of control
- POC (percent of control) PC3 [5, 13]: 64.8% of control
- activity at 100 µM [6]: 74.9%
- POC (percent of control) HDF [6, 12]: 56.1% of control
- POC (percent of control) HDF [6, 13]: 62.2% of control
- activity at 100 µM [7]: 40.4%
- POC (percent of control) BxPC3 [7, 12]: 41.8% of control
- POC (percent of control) BxPC3 [7, 13]: 44.6% of control
- activity at 100 µM [8]: 66.1%
- POC (percent of control) T47D [8, 12]: 33.7% of control
- POC (percent of control) T47D [8, 13]: 62.2% of control
- activity at 100 µM [9]: 129%
- POC (percent of control) NCI-H196 [9, 12]: 40.4% of control
- POC (percent of control) NCI-H196 [9, 13]: 60.6% of control
- activity at 100 µM [10]: 43.2%
- POC (percent of control) H293 [10, 12]: 49% of control
- POC (percent of control) H293 [10, 13]: 43.3% of control
- activity at 100 µM [11]: 79%
- POC (percent of control) MCF7 [11, 12]: 60.7% of control
- POC (percent of control) MCF7 [11, 13]: 53.5% of control

SMILES: CC(=O)n1cc(CNS(=O)(=O)c2ccc(Cl)cc2)c2ccccc21 [Compound 4, N-[(1-acetyl-1H-indole-3-yl)methyl]-4-chlorobenzenesulfonamide]
- activity at 100 µM [1]: 90.6%
- POC (percent of control) HeLa [1, 12]: 67.4% of control
- POC (percent of control) HeLa [1, 13]: 84.3% of control
- activity at 100 µM [2]: 59.7%
- POC (percent of control) MCF10A [2, 12]: 84.8% of control
- POC (percent of control) MCF10A [2, 13]: 89.8% of control
- activity at 100 µM [3]: 94.7%
- POC (percent of control) MDA-MB [3, 12]: 63.6% of control
- POC (percent of control) MDA-MB [3, 13]: 71.9% of control
- activity at 100 µM [4]: 79.1%
- POC (percent of control) SkBr3 [4, 12]: 87.5% of control
- POC (percent of control) SkBr3 [4, 13]: 96.8% of control
- activity at 100 µM [5]: 93.7%
- POC (percent of control) PC3 [5, 12]: 61.9% of control
- POC (percent of control) PC3 [5, 13]: 61.3% of control
- activity at 100 µM [6]: 88.1%
- POC (percent of control) HDF [6, 12]: 66.8% of control
- POC (percent of control) HDF [6, 13]: 88.6% of control
- activity at 100 µM [7]: 88.4%
- POC (percent of control) BxPC3 [7, 13]: 71.1% of control
- activity at 100 µM [8]: 48.9%
- POC (percent of control) T47D [8, 12]: 36.3% of control
- POC (percent of control) T47D [8, 13]: 45.8% of control
- activity at 100 µM [9]: 72.5%
- POC (percent of control) NCI-H196 [9, 12]: 49.6% of control
- POC (percent of control) NCI-H196 [9, 13]: 61.5% of control
- activity at 100 µM [10]: 88.6%
- POC (percent of control) H293 [10, 12]: 60% of control
- POC (percent of control) H293 [10, 13]: 65.8% of control
- activity at 100 µM [11]: 108%
- POC (percent of control) MCF7 [11, 12]: 82.2% of control
- POC (percent of control) MCF7 [11, 13]: 79.2% of control

SMILES: Cc1ccc(S(=O)(=O)NCc2nccs2)cc1 [Compound 19, 4-methyl-N-(1,3-thiazol-2-ylmethyl)benzenesulfonamide]
- activity at 100 µM [1]: 104%
- POC (percent of control) HeLa [1, 12]: 94.8% of control
- POC (percent of control) HeLa [1, 13]: 109.3% of control
- activity at 100 µM [2]: 83.9%
- POC (percent of control) MCF10A [2, 12]: 95.8% of control
- POC (percent of control) MCF10A [2, 13]: 119.8% of control
- activity at 100 µM [3]: 104%
- POC (percent of control) MDA-MB [3, 12]: 89.5% of control
- POC (percent of control) MDA-MB [3, 13]: 112% of control
- activity at 100 µM [4]: 119%
- POC (percent of control) SkBr3 [4, 12]: 105.9% of control
- POC (percent of control) SkBr3 [4, 13]: 108.6% of control
- activity at 100 µM [5]: 108%
- POC (percent of control) PC3 [5, 12]: 127.1% of control
- POC (percent of control) PC3 [5, 13]: 98.9% of control
- activity at 100 µM [6]: 92.5%
- POC (percent of control) HDF [6, 12]: 98.9% of control
- POC (percent of control) HDF [6, 13]: 87.3% of control
- activity at 100 µM [7]: 96.2%
- POC (percent of control) BxPC3 [7, 12]: 98.4% of control
- POC (percent of control) BxPC3 [7, 13]: 107.2% of control
- activity at 100 µM [8]: 91.5%
- POC (percent of control) T47D [8, 12]: 87.4% of control
- POC (percent of control) T47D [8, 13]: 86.7% of control
- activity at 100 µM [9]: 117%
- POC (percent of control) NCI-H196 [9, 12]: 107.3% of control
- POC (percent of control) NCI-H196 [9, 13]: 94.3% of control
- activity at 100 µM [10]: 82.2%
- POC (percent of control) H293 [10, 12]: 87.2% of control
- POC (percent of control) H293 [10, 13]: 79.1% of control
- activity at 100 µM [11]: 134%
- POC (percent of control) MCF7 [11, 12]: 104% of control
- POC (percent of control) MCF7 [11, 13]: 92.1% of control
